One may read the IC50 as the point on the concentration scale where inhibition reaches its midpoint. The low end stands for inhibition by little substance, the high end for a need for much substance.

For the assay, the target named is T1, Mdm2/p53 binding (Homo sapiens, UniProt Q00987, L33E).
T1 construct: having Mdm2 amino acids at positions 25 to 108
Briefly: Mdm2/p53 binding assay (HTRF, His-p53 / GST-Mdm2). Particulars: His-p53 (aa 1-132) and GST-Mdm2 (aa 25-108, L33E), 6.25 nM each; 25° C., 1 hour. How it is done:
Next, a test compound was diluted with protein buffer solution containing 10% DMSO, and this test compound dilution was added in an amount of 4 μL/well to the plate.
These dilutions were added in an amount of 8 μL/well (total reaction solution volume: 20 μl/well). Then, the plate was left at 25° C. for 1 hour.
C (correction factor)=(A−BI)/D
The R value calculated from the well supplemented with His-p53, GST-Mdm2, the test compound, and each antibody was defined as R (sample). The R value calculated from the well supplemented with His-p53, GST-Mdm2, and each antibody but without the test compound was defined as R (control). The R value calculated from the well supplemented with GST-Mdm2, the test compound, and each antibody but without His-p53 was defined as R (background). T/C was calculated from the formula shown below. An IC50 value for Mdm2/p53 binding was calculated by sigmoid fitting using Prism (GraphPad Software).
T/C=(R (sample)−R (background))/(R (control)−R (background))
On the technique in general: TR-FRET usually uses a lanthanide donor and a delayed reading to cut background.

T1 sequence (Q00987 25-108 L33E, species assumed): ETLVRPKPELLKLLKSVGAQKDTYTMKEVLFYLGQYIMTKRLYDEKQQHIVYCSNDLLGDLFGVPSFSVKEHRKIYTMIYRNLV

`CC(C)C1=C(CN2CCNC(=O)C2)SC2=NC(C)(c3ccc(Cl)cc3)C(c3ccc(Cl)cc3)N21` (racemic) [Example 18, 4-{[(5R*,6S*)-5,6-Bis(4-chlorophenyl)-3-isopropyl-6-methyl-5,6-dihydroimidazo[2,1-b][1,3]thiazol-2-yl]methyl}piperazin-2-one]: the IC50 was 0.087 µM.

In the case of `CCCCC[C@]1(C)N=C2SC(C(=O)N3CCC[C@H]3C(=O)N(C)C)=C(C(C)C)N2[C@@H]1c1ccc(Cl)cc1` (relative stereo) [Example 99 (Cis-Isomer), 1-{[(5R*,6S*)-5-(4-chlorophenyl)-3-isopropyl-6-methyl-6-pentyl-5,6-dihydroimidazo[2,1-b][1,3]thiazol-2-yl]carbonyl}-N,N-dimethyl-L-prolinamide], the IC50 is 0.194 µM.

In turn, `CC(C)C1=C(C(=O)N(C)C)SC2=N[C@@](C)(c3ccc(Cl)cc3)[C@@H](c3ccc(Cl)cc3)N21` [Example 39, (5R,6S)-5,6-Bis(4-chlorophenyl)-3-isopropyl-N,N,6-trimethyl-5,6-dihydroimidazo[2,1-b][1,3]thiazole-2-carboxamide] came in with an IC50 of 0.051 µM.

The compound `CC(C)C1=C(C(=O)N2CCC[C@H]2C(=O)N2CCC[C@H]2C(=O)O)SC2=N[C@@](C)(c3ccc(Cl)cc3)[C@@H](c3ccc(Cl)cc3)N21` [Example 68, 1-{[(5R,6S)-5,6-Bis(4-chlorophenyl)-3-isopropyl-6-methyl-5,6-dihydroimidazo[2,1-b][1,3]thiazol-2-yl]carbonyl}-L-prolyl-L-proline] displayed an IC50 of 0.046 µM.

With `CC(=O)N(C)C[C@H](C)N(C)C(=O)C1=C(C(C)C)N2C(=N[C@@](C)(c3ccc(Cl)cc3)[C@H]2c2ccc(Cl)cc2)S1` [Example 74, (5R,6S)—N-{(1S)-2-[Acetyl(methyl)amino]-1-methylethyl}-5,6-bis(4-chlorophenyl)-3-isopropyl-N,6-dimethyl-5,6-dihydroimidazo[2,1-b][1,3]thiazole-2-carboxamide], the IC50 worked out at 0.023 µM.

Compound `CC(=O)N1CCN(C(=O)CN(CC(C)C)C(=O)C2=C(C(C)C)N3C(=N[C@@](C)(c4ccc(Cl)cc4)[C@H]3c3ccc(Cl)cc3)S2)CC1` [Example 88, (5R,6S)—N-[2-(4-Acetylpiperazin-1-yl)-2-oxoethyl]-5,6-bis(4-chlorophenyl)-N-isobutyl-3-isopropyl-6-methyl-5,6-dihydroimidazo[2,1-b][1,3]thiazole-2-carboxamide] came in with an IC50 of 0.029 µM.

`CC(C)C1=C(C(=O)N2CCC[C@H]2c2n[nH]c(=O)o2)SC2=N[C@@](C)(c3ccc(Cl)cc3)[C@@H](c3ccc(Cl)cc3)N21` [Example 89, 5-((2S)-1-{[(5R,6S)-5,6-Bis(4-chlorophenyl)-3-isopropyl-6-methyl-5,6-dihydroimidazo[2,1-b][1,3]thiazol-2-yl]carbonyl}pyrrolidin-2-yl)-1,3,4-oxadiazol-2(3H)-one] displayed an IC50 of 0.143 µM.

Regarding `CC(C)C1=C(C(=O)N2CC[C@H]2C(=O)N(C)C)SC2=N[C@@](C)(c3ccc(Cl)cc3)[C@@H](c3ccc(Cl)cc3)N21` [Example 93, (2S)-1-{[(5R,6S)-5,6-Bis(4-chlorophenyl)-3-isopropyl-6-methyl-5,6-dihydroimidazo[2,1-b][1,3]thiazol-2-yl]carbonyl}-N,N-dimethylazetidine-2-carboxamide], the IC50 amounted to 0.135 µM.

In turn, `CNc1cc([C@]2(C)N=C3SC(C(=O)N4CCC[C@H]4C(=O)N4CCN(C)CC4)=C(C(C)C)N3[C@@H]2c2ccc(Cl)cc2)ccc1Cl` [Example 102] came in with a concentration for half-maximal inhibition (IC50) of 0.08 µM. This IC50 lies about 1.7-fold lower than the previous one.

Turning to `CC[C@@H]1CC[C@@H](C(=O)N2C[C@@H](C)N[C@@H](C)C2)N1C(=O)C1=C(C(C)C)N2C(=N[C@@](C)(c3ccc(Cl)cc3)[C@H]2c2ccc(Cl)cc2)S1` [Example 105, (5R,6S)-5,6-Bis(4-chlorophenyl)-2-[((2S,5R)-2-{[(3R,5S)-3,5-dimethylpiperazin-1-yl]carbonyl}-5-ethylpyrrolidin-1-yl)carbonyl]-3-isopropyl-6-methyl-5,6-dihydroimidazo[2,1-b][1,3]thiazole], the IC50 came out at 0.018 µM.

These data come from patent US20090312310A1 (priority 2006, published 2009).
